The target in series [1] is T1, PARP (Homo sapiens, UniProt P09874).
T1 construct: purchased Travigen (Trevigen) 4669-96-K
The experiment in a line: Measurement of PARP inhibitory activity (PARP Inhibition Assay kit, ADP-ribosylated histone). Conditions: HSA PARP Enzyme, histone-coated plate, absorbance at 450 nm. It counts as biochemical. Here is the method:
PARP activity is determined by measuring the amount of ADP-ribosylated histone protein applied onto an assay plate according to the manual of a measurement kit “PARP Inhibition Assay” (produced by Travigen, catalog number: 4669-96-K). Specifically, 25 μL/well of “2×PARP cocktail” (containing 800 μM of NAD, 50 μM of biotinylated NAD, and denatured DNA) was added to each well of assay plates (96-well multiplate) previously coated with histone protein. Further added was 12.5 μL/well of test compound diluted with “PARP Buffer” (50 mM Tris-hydrochloric acid buffer (pH 8.0) containing 25 mM of MgCl2) and 12.5 μL/well (final concentration: 0.3 unit/50 μL/well) of “HSA PARP Enzyme” diluted with “PARP Buffer” in that order. The mixture was allowed to react at room temperature for 30 minutes. Enzyme reaction of PARP was suspended by discarding the reaction solution and rinsing with a phosphate buffer. Then, 50 μL/well of “Strep-HRP” (streptavidin-labeled horseradish peroxidase) was added and allowed to react at 37° C. for 20 to 30 minutes to bind to biotin-labeled ADP-ribosylated histone. After the reaction solution was discarded, resultings were rinsed with a phosphate buffer, and 50 μL/well of calorimetric substrate TACS-Sapphire was added to the mixture to react at room temperature for 5 to 10 minutes in the dark.
The reaction was terminated by adding 50 μL/well of 0.2 N hydrochloric acid solution, and the absorbance at 450 nm was measured with a microplate reader.

In series [2] the test system is U937 cells. The experiment in a line: Inhibitory effect against active oxygen-induced cell injury with U937 cells. It counts as cell-based. Conditions: propidium iodide fluorescence. As for the experimental part: U937 cells were suspended in RPMI 1640 without serum, and were seeded at a concentration of 1×10^4 cells/50 μL/well in a solid assay plate (produced by Corning, black, tissue culture treated, Type: 3916). After adding 1 μL/well of test compound solution in DMSO, 50 μL/well of 20 mM hydrogen peroxide solution was added, followed by incubation at 37° C. for 3 hours in an atmosphere of 5% CO2. Then, 2 μL/well of 1.5 mM propidium iodide solution was added and incubation was further carried out at 37° C. for 1 hour. The fluorescence was measured with a fluorescence plate reader ARVO (excitation wavelength: 530 nm, fluorescence wavelength: 620 nm) to investigate hydrogen peroxide solution-induced necrosis inhibition.

Setting [3] is: Homo sapiens, U-937, hydrogen peroxide-induced necrosis.

T1 sequence (P09874 whole entry): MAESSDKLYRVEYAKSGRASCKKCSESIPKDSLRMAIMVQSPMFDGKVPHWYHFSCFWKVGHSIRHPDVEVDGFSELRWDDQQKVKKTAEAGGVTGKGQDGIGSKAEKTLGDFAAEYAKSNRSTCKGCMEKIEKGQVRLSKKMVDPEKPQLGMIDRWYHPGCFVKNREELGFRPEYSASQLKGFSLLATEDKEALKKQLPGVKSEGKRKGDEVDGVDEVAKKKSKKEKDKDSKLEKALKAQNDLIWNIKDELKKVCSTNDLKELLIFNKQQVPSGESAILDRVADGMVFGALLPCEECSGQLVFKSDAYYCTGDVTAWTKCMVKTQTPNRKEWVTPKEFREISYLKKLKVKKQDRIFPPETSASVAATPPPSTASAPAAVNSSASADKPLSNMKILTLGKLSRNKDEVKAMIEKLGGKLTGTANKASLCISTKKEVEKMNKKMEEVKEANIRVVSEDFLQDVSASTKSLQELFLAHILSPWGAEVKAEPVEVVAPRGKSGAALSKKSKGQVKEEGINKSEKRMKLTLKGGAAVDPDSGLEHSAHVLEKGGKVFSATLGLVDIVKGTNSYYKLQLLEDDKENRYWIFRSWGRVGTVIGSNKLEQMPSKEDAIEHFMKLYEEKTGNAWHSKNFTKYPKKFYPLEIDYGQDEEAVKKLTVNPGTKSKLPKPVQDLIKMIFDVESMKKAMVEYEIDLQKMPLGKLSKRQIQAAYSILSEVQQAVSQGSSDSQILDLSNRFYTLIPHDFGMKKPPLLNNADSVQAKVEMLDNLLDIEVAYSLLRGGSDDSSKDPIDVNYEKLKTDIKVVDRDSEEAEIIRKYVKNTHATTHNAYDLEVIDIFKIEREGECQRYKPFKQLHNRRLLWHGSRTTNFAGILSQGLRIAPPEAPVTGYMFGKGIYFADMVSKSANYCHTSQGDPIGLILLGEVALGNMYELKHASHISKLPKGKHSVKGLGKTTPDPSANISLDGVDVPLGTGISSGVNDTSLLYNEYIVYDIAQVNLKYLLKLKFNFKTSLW

`N[C@H]1CCN2c3c(cccc31)C(=O)N[C@@H]2c1ccc(OCCO)cc1` (racemic) [Example 93, Mixture of (3S,7S)-7-amino-3-(4-hydroxyethoxyphenyl)-6,7-dihydro-3H,5H-pyrido[3,2,1-ij]quinazoline-1(2H)-one and (3R,7R)-7-amino-3-(4-hydroxyethoxyphenyl)-6,7-dihydro-3H,5H-pyrido[3,2,1-ij]quinazoline-1(2H)-one] had a melting point of 96.8 to 97.6 °C. For the same compound, the IC50 in series [1] turned out to be 6 nM.
With `COc1ccc([C@H]2NC(=O)c3cccc4c3N2CC[C@@H]4N)cc1F` (racemic) [Example 99, Mixture of (3S,7S)-7-amino-3-(3-fluoro-4-methoxyphenyl)-6,7-dihydro-3H,5H-pyrido[3,2,1-ij]quinazoline-1(2H)-one and (3R,7R)-7-amino-3-(3-fluoro-4-methoxyphenyl)-6,7-dihydro-3H,5H-pyrido[3,2,1-ij]quinazoline-1(2H)-one], the melting point lay within 128.5 to 137.4 °C. Moreover, in series [1], the half-maximal inhibitory concentration (IC50) is 42 nM.
Taken in the same sequence, the figures for `N[C@H]1CCN2c3c(cccc31)C(=O)N[C@@H]2c1cccnc1` (racemic) [Example 100, Mixture of (3S,7S)-7-amino-3-(3-pyridyl)-6,7-dihydro-3H,5H-pyrido[3,2,1-ij]quinazoline-1(2H)-one and (3R,7R)-7-amino-3-(3-pyridyl)-6,7-dihydro-3H,5H-pyrido[3,2,1-ij]quinazoline-1(2H)-one] were 127 to 131.2 °C and 170 nM.
As to `CN(C)c1ccc([C@@H]2NC(=O)c3cccc4c3N2CC[C@@H]4N)cc1` (racemic) [Example 129, Mixture of (3R,7S)-7-amino-3-(4-N,N-dimethylaminophenyl)-6,7-dihydro-3H,5H-pyrido[3,2,1-ij]quinazoline-1(2H)-one and (3S,7R)-7-amino-3-(4-N,N-dimethylaminophenyl)-6,7-dihydro-3H,5H-pyrido[3,2,1-ij]quinazoline-1(2H)-one], the melting point was 237.8 to 239.7 °C. The compound also showed an IC50 in series [1] of 49 nM.
The compound `COc1ccc(C2NC(=O)c3cccc4c3N2CCC4N)cc1` (stereo not drawn) [Example 4, 7-amino-3-(4-methoxyphenyl)-6,7-dihydro-3H,5H-pyrido[3,2,1-ij]quinazolinone-1(2H)-one] had a melting point of 139.7 to 145.9 °C. Moreover, the IC50 in series [1] turned out to be 58 nM. The IC50 in series [2] (setting [3]) is 610 nM.
The compound `O=C1CCN2c3c1cccc3C(=O)NC2c1ccc([N+](=O)[O-])cc1` (stereo not drawn) [Example 17, 3-(4-nitrophenyl)-6,7-dihydro-3H,5H-pyrido[3,2,1-ij]quinazoline-1,7(2H)-dione] came in with a melting point of 198.8 to 209.3 °C. Besides, in series [1], the midpoint of inhibition, the IC50, lay at 240 nM. The same compound returned an IC50 in series [2] (setting [3]) of 1200 nM.
The compound `COc1ccc(C2NC(=O)c3cccc4c3N2CCC4=NO)cc1F` (stereo not drawn) [Example 66, 3-(3-fluoro-4-methoxyphenyl)-7-hydroxyimino-6,7-dihydro-3H,5H-pyrido[3,2,1-ij]quinazoline-1(2H)-one] yielded a melting point of 260.3 to 261.6 °C. Further, the IC50 in series [2] (setting [3]) was determined as 1700 nM.
As to `O=C1NC(c2ccc([N+](=O)[O-])cc2)N2CCC(=NO)c3cccc1c32` (stereo not drawn) [Example 73, 7-hydroxyimino-3-(4-nitrophenyl)-6,7-dihydro-3H,5H-pyrido[3,2,1-ij]quinazoline-1(2H)-one], the melting point fell in the range of 220 to 224.7 °C.
On the same count and under the same terms, in the case of `N#Cc1ccc(C2NC(=O)c3cccc4c3N2CCC4=NO)cc1` (stereo not drawn) [Example 74, 3-(4-cyanophenyl)-7-hydroxyimino-6,7-dihydro-3H,5H-pyrido[3,2,1-ij]quinazoline-1(2H)-one] it was above 250 °C; in that of `O=C1NC(c2ccc(F)c(F)c2)N2CCC(=NO)c3cccc1c32` (stereo not drawn) [Example 75, 3-(3,4-difluorophenyl)-7-hydroxyimino-6,7-dihydro-3H,5H-pyrido[3,2,1-ij]quinazoline-1(2H)-one], 218.4 to 222.3 °C.
Same read-out and setting: in the case of `O=C1NC(c2ccc(F)cc2)N2CCC(=NO)c3cccc1c32` (stereo not drawn) [Example 76, 3-(4-fluorophenyl)-7-hydroxyimino-6,7-dihydro-3H,5H-pyrido[3,2,1-ij]quinazoline-1(2H)-one] it was 247.1 to 252.3 °C; in that of `Cc1ccc(C2NC(=O)c3cccc4c3N2CCC4=NO)cc1` (stereo not drawn) [Example 77, 7-hydroxyimino-3-(4-methylphenyl)-6,7-dihydro-3H,5H-pyrido[3,2,1-ij]quinazoline-1(2H)-one], 215.4 to 219 °C.
Compound `O=C1NC(c2ccc(Cl)cc2)N2CCC(=NO)c3cccc1c32` (stereo not drawn) [Example 78] gave a melting point of 210.6 to 217.2 °C.
On the same count and under the same terms, in the case of `O=C1NC(c2ccc(Br)cc2)N2CCC(=NO)c3cccc1c32` (stereo not drawn) [Example 79, 3-(4-bromophenyl)-7-hydroxyimino-6,7-dihydro-3H,5H-pyrido[3,2,1-ij]quinazoline-1(2H)-one] it was 230 to 236.9 °C; in that of `COc1ccc(C2NC(=O)c3cccc4c3N2CCC4)cc1` (stereo not drawn) [Example 103, 3-(4-methoxyphenyl)-6,7-dihydro-3H,5H-pyrido[3,2,1-ij]quinazoline-1(2H)-one], 143.3 to 154.6 °C.
Same read-out and setting: under `NC1CCN2c3c(cccc31)C(=O)NC2c1ccc(C(=O)O)cc1` (stereo not drawn) [Example 127, 7-amino-3-(4-carboxyphenyl)-6,7-dihydro-3H,5H-pyrido[3,2,1-ij]quinazolinone-1-(2H)-one] stands 232.3 to 238.7 °C.
The compound `COc1ccc(C2NC(=O)c3cccc4c3N2CCC4NC(=O)c2ccc(N(C)C)cc2)cc1` (stereo not drawn) [Example 132, 7-(4-N,N-dimethylamino)benzoylamino-3-(4-methoxyphenyl)-6,7-dihydro-3H,5H-pyrido[3,2,1-ij]quinazoline-1(2H)-one] had a melting point of 201.4 to 202.9 °C.
The same measure, in the same setting: in the case of `COc1ccc(C2NC(=O)c3cccc4c3N2CCC4NC(=O)CCN2CCCCC2)cc1` (stereo not drawn) [Example 133, 7-[3-(piperidine-1-yl)propanoyl]amino-3-(4-methoxyphenyl)-6,7-dihydro-3H,5H-pyrido[3,2,1-ij]quinazoline-1(2H)-one] it was 186 to 187.2 °C; in that of `COc1ccc(C2NC(=O)c3cccc4c3N2CCC4NC(=O)C2CCN(C)CC2)cc1` (stereo not drawn) [Example 134, 7-(1-methylpiperidine-4-yl)carbonylamino-3-(4-methoxy-phenyl)-6,7-dihydro-3H,5H-pyrido[3,2,1-ij]quinazoline-1(2H)-one], 252.3 to 253.1 °C; in that of `COc1ccc(C2NC(=O)c3cccc4c3N2CCC4N(C)C)cc1` (stereo not drawn) [Example 135, 7-dimethylamino-3-(4-methoxyphenyl)-6,7-dihydro-3H,5H-pyrido[3,2,1-ij]quinazoline-1(2H)-one], 188.2 to 192.4 °C.
Compound `COc1ccc(C2NC(=O)c3cccc4c3N2CCC4NC(=O)CN(C)C)cc1` (stereo not drawn) [Example 136, 7-(N,N-dimethylaminoacetyl)amino-3-(4-methoxyphenyl)-6,7-dihydro-3H,5H-pyrido[3,2,1-ij]quinazoline-1(2H)-one] gave a melting point of 161.4 to 166.6 °C.
On to “Mixture of (3S,7S)-7-amino-3-(3,4-difluorophenyl)-6,7-dihydro-3H,5H-pyrido[3,2,1-ij]quinazoline-1(2H)-one and (3R,7R)-7-amino-3-(3,4-difluorophenyl)-6,7-dihydro-3H,5H-pyrido[3,2,1-ij]quinazoline-1(2H)-one [Example 122]”, for which, in series [1], the half-inhibitory concentration (IC50) is 120 nM. This counts as sub-micromolar.
As for “Mixture of (3S,7S)-7-amino-3-(4-bromophenyl)-6,7-dihydro-3H,5H-pyrido[3,2,1-ij]quinazoline-1(2H)-one and (3R,7R)-7-amino-3-(4-bromophenyl)-6,7-dihydro-3H,5H-pyrido[3,2,1-ij]quinazoline-1(2H)-one [Example 123]”, the IC50 came to 110 nM in series [1] and 300 nM in series [2] (hydrogen peroxide-induced necrosis).

The values above are taken from patent publication US20060004028A1, “Novel PARP inhibitor” (MOCHIDA PHARMACEUTICAL CO., LTD., priority 2002, published 2006).
